Test results from patent US20220125959A1, “PROSTATE-SPECIFIC MEMBRANE ANTIGEN (PSMA) INHIBITORS AS DIAGNOSTIC AND RADIONUCLIDE THERAPEUTIC AGENTS” (FIVE ELEVEN PHARMA INC., priority 2019, published 2022).

Legend:
[1] = Stability of injected doses after formulation; assay type: physicochemical; conditions: at 2 hr after formulation
Protocol: (§1) ^68Ga labeling: To 15 nmole ligand 4 (1 mg/mL DMSO) were added 20 μL of 2.0 N NaOAc, 500 μL ^68Ga-solution (2.25 mCi). The reaction was heated in a heating block at 90° C. for 10 minutes in a 3 mL closed vial. After cooling, the sample was analyzed by HPLC (HPLC: Eclise XDB C18 150×4.6 mm, gradient, 2 mL/min; A: 0.1% TFA in water; B: 0.1% TFA in ACN: 0-2 min 100% A; 2-4 min: from 0% to 100% B; 4-9 min: 100% B; 9-10 min: from 100% to 0% B). Radiochemical purity of [^68Ga]4 was >99% RCP (FIG. 1) and injected doses were stable at 2 hr after formulation.
^177Lu labeling: To 10 μg ligand (1 mg/mL DMSO) were added 15 μL of 2.0 N NaOAc, 400 μL 0.05 N HCl, and 20 μL ^177Lu-solution (780 μCi (Capintec setting 450 (reading×10)). The reaction was heated with a heating block at 95° C. for 1 hour in a 3 mL closed vial. After cooling, the sample was analyzed by HPLC (HPLC: Eclipse XDB-C18 150×4.6 mm, gradient, 1 mL/min; A: 0.1% TFA in water; B: 0.1% TFA in ACN: 0-4 min A/B 85/15%; 4-11 min: from 85/15 to 30/70%; 11-14 min: from 30/70% to 85/15%). Radiochemical purity of [^177Lu]4 (FIG. 2) and [^177Lu]7 was >98% and injected doses were stable at 48 hr after formulation.
For iv injection 150 μL of labeled solution was diluted with saline to 3.75mL. Mice were injected with 150 μL of formulated dose. Injected radioactivity was 100 μCi and PSMA ligand amount was constant at 0.72 nmole/mouse.

[2] = tested on: PC3-PIP (PSMA positive) and PC-3 tumors (PSMA negative); experiment: Biodistribution of [68Ga]4 in tumor bearing nude mice; assay type: in vivo, CD-1 male nude mice
Protocol: as §1
For iv injection 150 μL of labeled solution was diluted with saline to 3 mL. Mice were injected with 150 μL of formulated dose. Injected radioactivity was 19-28 μCi and PSMA ligand amount was constant at 0.2 nmole/mouse.
Biodistribution of [^68Ga]4, [^177Lu]4 and [^177Lu]7 was determined in nude mice bearing PIP PC3 (PSMA positive) and PC3 (PSMA negative) tumors on the left and right shoulder, respectively, over a period of 192 h (Table 3a, 3b and 3c). […] The uptake in PC3 tumors (PSMA negative) of both ligands, [^177Lu]4 and [^177Lu]7, was clearly much lower than those of PC-3 PIP tumors (PSMA positive).

[3] = tested on: PSMA-negative cell line, PC3; experiment: In vitro cell uptake, PC3 cells; assay type: cell-based; conditions: PC3 (do not express PSMA), 60 min
Protocol: To determine the cell uptakes of the [^177Lu] labelled ligands, 5×10^5 cells/well were grown in 12-well plates in 1 mL of medium for 48 h. The cells were washed twice with PBS, and 900 μL fresh media were added. Radiolabelled ligand was added and the PSMA-inhibitor (2-PMPA) was applied in a final concentration of 10 μM to determine unspecific binding. All samples were prepared in triplicate. Following the incubation at 37° C., cells were washed twice to remove unbound activity and afterwards lysed in 1 mL of 0.5 M NaOH. Activity was measured in a gamma counter. Aliquots of the solution added to the cells were also measured for the calculation of the cellular uptake as % ID.

[4] = tested on: PSMA-positive cell line, PIP PC3; experiment: In vitro cell uptake, PIP PC3 cells; assay type: cell-based
Protocol: To determine the cell uptakes of the [^177Lu] labelled ligands, 5×10^5 cells/well were grown in 12-well plates in 1 mL of medium for 48 h. The cells were washed twice with PBS, and 900 μL fresh media were added. […] All samples were prepared in triplicate. Following the incubation at 37° C., cells were washed twice to remove unbound activity and afterwards lysed in 1 mL of 0.5 M NaOH. Activity was measured in a gamma counter. Aliquots of the solution added to the cells were also measured for the calculation of the cellular uptake as % ID.

## O=C(O)CCC(C(=O)O)N1CCN(CC(=O)O)CCN(C(CCC(=O)NCC(=O)N[C@@H](Cc2ccc(OCC(=O)N[C@@H](Cc3ccccc3)C(=O)NCCCC[C@H](NC(=O)N[C@@H](CCC(=O)O)C(=O)O)C(=O)O)cc2)C(=O)O)C(=O)O)CCN(CC(=O)O)CC1.[68Ga] (stereo partly drawn) [[^68Ga]4]
[1]
  Stability of injected doses: stable
[2]; 30 min
  Biodistribution: Blood: 1.22 ± 0.06 % dose/g
  Biodistribution: Bone: 0.35 ± 0.01 % dose/g
  Biodistribution: Brain: 0.04 ± 0.01 % dose/g
  Biodistribution: Heart: 0.75 ± 0.12 % dose/g
  Biodistribution: Intestine: 0.48 ± 0.12 % dose/g
  Biodistribution: Kidney: 137.36 ± 12.92 % dose/g
  Biodistribution: Liver: 3.23 ± 0.31 % dose/g
  Biodistribution: Lung: 2.46 ± 0.37 % dose/g
  Biodistribution: Muscle: 0.51 ± 0.07 % dose/g
  Biodistribution: PC3-PSMA- tumor: 1.59 ± 0.27 % dose/g
  Biodistribution: PIP-PSMA+ tumor: 12.88 ± 2.08 % dose/g
  Biodistribution: Pancreas: 1.57 ± 0.93 % dose/g
  Biodistribution: Skin: 1.71 ± 0.22 % dose/g
  Biodistribution: Spleen: 7.19 ± 1.55 % dose/g
  Biodistribution: Stomach: 0.44 ± 0.28 % dose/g
[2]; 1 hr
  Biodistribution: Blood: 0.65 ± 0.08 % dose/g
  Biodistribution: Bone: 0.17 ± 0.01 % dose/g
  Biodistribution: Brain: 0.03 ± 0.00 % dose/g
  Biodistribution: Heart: 0.43 ± 0.06 % dose/g
  Biodistribution: Intestine: 0.44 ± 0.13 % dose/g
  Biodistribution: Kidney: 166.31 ± 18.62 % dose/g
  Biodistribution: Liver: 2.87 ± 0.30 % dose/g
  Biodistribution: Lung: 1.52 ± 0.28 % dose/g
  Biodistribution: Muscle: 0.21 ± 0.05 % dose/g
  Biodistribution: PC3-PSMA- tumor: 1.14 ± 0.25 % dose/g
  Biodistribution: PIP-PSMA+ tumor: 13.86 ± 1.54 % dose/g
  Biodistribution: Pancreas: 0.75 ± 0.13 % dose/g
  Biodistribution: Skin: 0.64 ± 0.26 % dose/g
  Biodistribution: Spleen: 4.60 ± 1.80 % dose/g
  Biodistribution: Stomach: 0.34 ± 0.19 % dose/g
[2]; 2 hr
  Biodistribution: Blood: 0.53 ± 0.11 % dose/g
  Biodistribution: Bone: 0.19 ± 0.03 % dose/g
  Biodistribution: Brain: 0.03 ± 0.00 % dose/g
  Biodistribution: Heart: 0.25 ± 0.04 % dose/g
  Biodistribution: Intestine: 0.38 ± 0.04 % dose/g
  Biodistribution: Kidney: 116.41 ± 51.94 % dose/g
  Biodistribution: Liver: 2.54 ± 0.16 % dose/g
  Biodistribution: Lung: 1.05 ± 0.08 % dose/g
  Biodistribution: Muscle: 0.14 ± 0.07 % dose/g
  Biodistribution: PC3-PSMA- tumor: 0.74 ± 0.23 % dose/g
  Biodistribution: PIP-PSMA+ tumor: 16.74 ± 2.75 % dose/g
  Biodistribution: Pancreas: 0.50 ± 0.15 % dose/g
  Biodistribution: Skin: 0.62 ± 0.31 % dose/g
  Biodistribution: Spleen: 3.41 ± 2.46 % dose/g
  Biodistribution: Stomach: 0.20 ± 0.09 % dose/g
[2]; suitable for PET imaging
  Tumor uptake: excellent tumor uptake

## O=C(O)CC[C@H](NC(=O)N[C@@H](CCCCNC(=O)[C@H](Cc1ccc2ccccc2c1)NC(=O)[C@H]1CC[C@H](CNC(=O)CN2CCN(CC(=O)O)CCN(CC(=O)O)CCN(CC(=O)O)CC2)CC1)C(=O)O)C(=O)O.[177Lu] [[^177Lu]PSMA-617, reference compound]
[3]
  In vitro cell uptake: 0.3 % ID per 5 × 10^5 cells
[4]; PIP PC3, 5 min
  In vitro cell uptake: 3.5 % ID per 5 × 10^5 cells
[4]; PIP PC3, 15 min
  In vitro cell uptake: 5.8 % ID per 5 × 10^5 cells
[4]; PIP PC3, 30 min
  In vitro cell uptake: 6.8 % ID per 5 × 10^5 cells
[4]; PIP PC3, 60 min
  In vitro cell uptake: 8.2 % ID per 5 × 10^5 cells
[4]; PIP PC3, 60 min, with PSMA inhibitor (2-PMPA, 2 uM)
  In vitro cell uptake: 1.0 % ID per 5 × 10^5 cells
[4]; PIP PC3, 120 min
  In vitro cell uptake: 9.6 % ID per 5 × 10^5 cells
